Assay results published in patent publication US20260199363A1, “METHOD OF TREATING CANCER IN A PATIENT WITH HEPATIC DYSFUNCTION” (priority 2023, published 2026).
Where two headings read alike, the source gives them in different places.

Key:
[1] = Study PKH-95032-008: Phase 1, open-label, single-dose pharmacokinetics, safety and tolerability in moderate hepatic impairment vs matched normal hepatic function; assay type: in vivo, human; conditions: for Tmax: median (minimum, maximum); for Cmax, u: unbound; for half-life / fraction unbound: arithmetic mean±StD; for fraction unbound: read-out: Fu, ave; for AUC0-t, Ratio (%) of Geometric Means (Test/Reference) / Cmax, Ratio (%) of Geometric Means (Test/Reference): moderate hepatic impairment (Test) / normal hepatic function
[2] = in vivo
[3] = Study AG881-C-004 (INDIGO): hepatic enzyme elevation adverse events and dose modifications; assay type: in vivo, human; conditions: for TEAEs leading to death, number of subjects / Treatment-related TEAEs leading to death, number of subjects: 40 mg QD, hepatic enzymes elevation SMQ
Excerpt: For Study AG881-C-004, the inclusion criteria specified that subjects with adequate hepatic (serum total bilirubin ≤1.5× upper limit of normal (ULN); and aspartate aminotransferase [AST] or alanine aminotransferase [ALT] at or below ULN; and AP≤2.5×ULN) were eligible for enrollment.
In the INDIGO clinical trial (Study AG881-C-004), 18.6% (31/167) of patients treated with Vorasidenib experienced ALT elevations ≥3 times the ULN and 8.4% (14/167) experienced AST elevations >3 times the ULN. Among these patients, 1.2% (2/167) had concurrent ALT or AST elevations >3 times the ULN and total bilirubin ≥2 times the ULN.
Similarly, more subjects in the vorasidenib arm experienced treatment-related TEAEs than the placebo arm (65 [38.9%] vs. 26 [16.0%] subjects, respectively).
Table 4. Overall Summary of Treatment-Emergent Adverse Events from SMQ (Broad Search) of Hepatic Enzymes Elevation Liver-Related Investigations, Signs and Symptoms—Glioma with Vorasidenib 40 mg QD
Most of the TEAEs were managed within the clinical trial protocol, and discontinuations due to elevated liver enzyme effects were rare (5 subjects, 3%). The median time to resolution (TTR) for the most common (occurred in ≥2 subjects) Grade ≥3 TEAEs in subjects in the vorasidenib arm are as follows:
The exposure-efficacy analysis used the area under the curve (AUCeot) at steady state based on the actual average dose across the treatment duration until EOT.
For the 14 subjects with dose reductions due to hepatotoxicity AE, a swimming plot showing time on study by individual subject is provided in the Figure. The plot includes details regarding timing and duration of TEAEs leading to dose reduction, timing and duration of reduced dose, as well as disease response by Blinded Independent Central Review (BIRC) at each assessment timepoint.

[4] = tested on: glioma; experiment: Study AG881-C-004 (INDIGO): clinical response per BIRC and exposure-efficacy analysis; assay type: in vivo, human
Excerpt: Exposure-efficacy analyses included clinical response to treatment, i.e., PFS, TTNI, OR (CR+PR+mR), CR+PR, all defined per blind independent review committee (BIRC). […] The exposure metrics were pop PK model predicted individual exposures by using post-hoc individual PK parameters and were based on the actual average dose across the treatment duration. The dose of vorasidenib used in the simulations is corrected for dose-reductions and interruptions occurring during the treatment in real life. […] The exposure-efficacy analysis used the area under the curve (AUCeot) at steady state based on the actual average dose across the treatment duration until EOT. […] For the 14 subjects with dose reductions due to hepatotoxicity AE, a swimming plot showing time on study by individual subject is provided in the Figure. The plot includes details regarding timing and duration of TEAEs leading to dose reduction, timing and duration of reduced dose, as well as disease response by Blinded Independent Central Review (BIRC) at each assessment timepoint.

[5] = Vorasidenib plasma pharmacokinetics across doses (steady-state exposure, dose proportionality); assay type: in vivo, human
Procedure: At the therapeutic dose of 40 mg QD (Formulation 2), the PopPK model predicted geometric mean AUC,ss and Cmax,ss were 3 times lower than corresponding exposure metrics at 300 mg QD (Formulation 1).

[6] = Group A normal hepatic function, 20 mg single dose
[7] = Group B moderate hepatic impairment, 20 mg single dose
[8] = human, plasma, 20 mg, Group A normal hepatic function, 20 mg single dose
[9] = human, plasma, 20 mg, Group B moderate hepatic impairment, 20 mg single dose
[10] = 4 subjects further reduced from 20 mg QD to 10 mg QD
[11] = 10 subjects reduced from 40 mg QD to 20 mg QD only
[12] = 167 subjects with glioma, only PR
[13] = 167 subjects with glioma, only PR and MR

Compound: C[C@@H](Nc1nc(N[C@H](C)C(F)(F)F)nc(-c2cccc(Cl)n2)n1)C(F)(F)F [vorasidenib, 6-(6-chloropyridin-2-yl)-N^2,N^4-bis((R)-1,1,1-trifluoropropan-2-yl)-1,3,5-triazine-2,4-diamine]
- AUC0-t and Cmax, normal hepatic function vs moderate hepatic impairment ([1]; 20 mg single dose): similar
- unbound AUC0-t higher in moderate hepatic impairment compared to normal hepatic function ([1]; 20 mg single dose): 23%
- unbound plasma protein fraction, both groups compared ([1]; 20 mg single dose): similar
- Tmax [1, 6]: 3.000 (0.500, 4.00) (10) h
- Cmax, u [1, 6]: 0.8135 (41.7) (10) ng/mL
- Tmax [1, 7]: 2.000 (1.00, 3.00) (9) h
- Cmax, u [1, 7]: 1.104 (54.2) (9) ng/mL
- half-life [1, 8]: 443 ± 349 h
- fraction unbound [1, 8]: 0.0223 ± 0.00245
- AUC(0-t) ([1]; human, plasma, 20 mg, Group A normal hepatic function, 20 mg single dose, geometric mean (geometric CV %), read-out: AUC0-t): 1440 ng·h/mL
- Cmax ([1]; human, plasma, 20 mg, Group A normal hepatic function, 20 mg single dose, geometric mean (geometric CV %), read-out: Cmax): 36.5 ng/mL
- Tmax ([1]; human, plasma, 20 mg, Group A normal hepatic function, 20 mg single dose, read-out: Tmax): ~3 h
- AUC(0-t) ([1]; human, plasma, 20 mg, Group A normal hepatic function, total plasma, 20 mg, read-out: AUC0-t, Geometric Mean (linear mixed effects model)): 1390 ng·h/mL
- Cmax ([1]; human, plasma, 20 mg, Group A normal hepatic function, total plasma, 20 mg, read-out: Cmax, Geometric Mean (linear mixed effects model)): 38.2 ng/mL
- half-life [1, 9]: 360 ± 189 h
- fraction unbound [1, 9]: 0.0289 ± 0.00354
- AUC(0-t) ([1]; human, plasma, 20 mg, Group B moderate hepatic impairment, 20 mg single dose, geometric mean (geometric CV %), read-out: AUC0-t): 1680 ng·h/mL
- Cmax ([1]; human, plasma, 20 mg, Group B moderate hepatic impairment, 20 mg single dose, geometric mean (geometric CV %), read-out: Cmax): 38.5 ng/mL
- Tmax ([1]; human, plasma, 20 mg, Group B moderate hepatic impairment, 20 mg single dose, read-out: Tmax): ~2 h
- AUC(0-t) ([1]; human, plasma, 20 mg, Group B moderate hepatic impairment, total plasma, 20 mg, read-out: AUC0-t, Geometric Mean (linear mixed effects model)): 1750 ng·h/mL
- Cmax ([1]; human, plasma, 20 mg, Group B moderate hepatic impairment, total plasma, 20 mg, read-out: Cmax, Geometric Mean (linear mixed effects model)): 38.5 ng/mL
- tolerability of single-dose administration ([1]; in vivo): tolerable
- AUC0-t, Ratio (%) of Geometric Means (Test/Reference) ([1]; 20 mg): 126%
- Cmax, Ratio (%) of Geometric Means (Test/Reference) ([1]; 20 mg): 101%
- AUC0-t, Ratio (%) of Geometric Means (Test/Reference) ([1]; 20 mg, listed as Vorasidenib): 125.97%
- Cmax, Ratio (%) of Geometric Means (Test/Reference) ([1]; 20 mg, listed as Vorasidenib): 100.66%
- effect of moderate hepatic impairment (Child-Pugh) on total or free (unbound) exposure ([1]; single oral dose of 20 mg): did not lead to clinically relevant changes
- Fecal excretion, total radioactivity recovery in feces [2]: 84.7%
- TEAEs leading to death, number of subjects ([3]; post-crossover, N = 52): 0 subjects
- Treatment-related TEAEs leading to death, number of subjects ([3]; post-crossover, N = 52): 0 subjects
- TEAEs leading to death, number of subjects ([3]; without crossover, N = 167): 0 subjects
- Treatment-related TEAEs leading to death, number of subjects ([3]; without crossover, N = 167): 0 subjects
- TEAEs (overall) leading to dose reduction, % of subjects ([3]; human, in vivo): 10.8%
- TEAEs (overall) leading to dose reduction, number of subjects ([3]; human, in vivo): 18 subjects
- alanine aminotransferase increased leading to dose reduction, % of subjects ([3]; human, in vivo): 7.8%
- alanine aminotransferase increased leading to dose reduction, number of subjects ([3]; human, in vivo): 13 subjects
- alanine aminotransferase increased: % with TTR in >60 days ([3]; human, in vivo): 41.9%
- alanine aminotransferase increased: % with TTR in ≤15 days ([3]; human, in vivo): 9.3%
- alanine aminotransferase increased: number of subjects with TTR in >60 days ([3]; human, in vivo): 36 subjects
- alanine aminotransferase increased: number of subjects with TTR in ≤15 days ([3]; human, in vivo): 8 subjects
- aspartate aminotransferase increased: % with TTR in >60 days ([3]; human, in vivo): 21.4%
- aspartate aminotransferase increased: % with TTR in ≤15 days ([3]; human, in vivo): 28.6%
- aspartate aminotransferase increased: number of subjects with TTR in >60 days ([3]; human, in vivo): 15 subjects
- aspartate aminotransferase increased: number of subjects with TTR in ≤15 days ([3]; human, in vivo): 20 subjects
- effect of exposure (AUCavg and Cmax,avg) on ALT, AST, and bilirubin (all grade and Grade ≥2) ([3]; human, in vivo): no statistically significant effect
- median TTR for aspartate aminotransferase increased (any grade) ([3]; human, in vivo): 29.0 days
- median time to resolution (TTR) for alanine aminotransferase increased (any grade) ([3]; human, in vivo): 56.0 days
- patients with ALT elevations ≥3 times the ULN ([3]; human, in vivo): 18.6%
- patients with ALT elevations ≥3 times the ULN (number/total) ([3]; human, in vivo): 31/167
- patients with AST elevations >3 times the ULN ([3]; human, in vivo): 8.4%
- patients with AST elevations >3 times the ULN (number/total) ([3]; human, in vivo): 14/167
- patients with concurrent ALT or AST elevations >3 times the ULN and total bilirubin ≥2 times the ULN ([3]; human, in vivo): 1.2%
- patients with concurrent ALT or AST elevations >3 times the ULN and total bilirubin ≥2 times the ULN (number/total) ([3]; human, in vivo): 2/167
- subjects requiring a dose reduction from 40 mg QD to 20 mg QD only ([3]; human, in vivo): 10 subjects
- subjects requiring a second dose reduction from 20 mg QD to 10 mg QD ([3]; human, in vivo): 4 subjects
- subjects with at least 1 dose reduction based on the exposure data (any reason), % ([3]; human, in vivo): 16.2%
- subjects with at least 1 dose reduction based on the exposure data (any reason), number ([3]; human, in vivo): 27 subjects
- course of liver enzyme and bilirubin increases ([3]; in vivo): transient and improved or resolved
- subjects with best response of SD while receiving 10 mg QD [4, 10]: Three
- subjects with response of PD while receiving 10 mg QD [4, 10]: 1 subject
- subjects with best response of MR by BIRC while receiving 20 mg QD [4, 11]: 1 subject
- subjects with best response of PD by BIRC while receiving 20 mg QD [4, 11]: one
- subjects with best response of SD by BIRC while receiving 20 mg QD [4, 11]: 8 subjects
- subjects with intervention (TTNI), % ([4]; 167 subjects with glioma): 11.4%
- subjects with intervention (TTNI), number ([4]; 167 subjects with glioma): 19 subjects
- subjects with progression (PFS) per BIRC, % ([4]; 167 subjects with glioma): 28.1%
- subjects with progression (PFS) per BIRC, number ([4]; 167 subjects with glioma): 47 subjects
- subjects with CR+PR per BIRC, % [4, 12]: 1.2%
- subjects with CR+PR per BIRC, number [4, 12]: 2 subjects
- subjects with OR (CR+PR+mR) per BIRC, % [4, 13]: 10.8%
- subjects with OR (CR+PR+mR) per BIRC, number [4, 13]: 18 subjects
- effect of exposure on efficacy responses (PFS, TTNI, OR and CR+PR) ([4]; studied exposure range, Study AG881-C-004): did not affect efficacy responses
- dose proportionality of PK ([5]; from 10 to 200 mg): dose proportional
- time dependence of PK ([5]; in vivo): not time-dependent
